Source: patent US20090238799A1, “Conditionally-Immortalised Pancreatic Cells” (priority 2005, published 2009)

Experiments:
[1] = test system: cells containing the cmyERTam construct; test: Proliferation of cells containing the cmyERTam construct; type: cell-based, human; details: removal promotes differentiation
Description: Before use, the following growth factors (GF) were added to HPM: 20 ng/ml epidermal growth factor (EGF) and 50 nM Gastrin I. After infection the pancreas cells were cultured in the presence of a supplement: 100 nM 4-Hydroxytamoxifen (4OHT).
Pancreas cells or preselected pancreas cell aggregates were transferred on fibronectin coated or uncoated vessels. Pancreatic cells were infected with virus supernatant and 4-8 μg/ml hexadimethrine bromide. After 8-16 hours of infection, fresh HPM was added and the infection cycle was repeated the next day. The infection was done in 10 cm Petri dishes with cell confluency ranging from 40% to 70%. After infection 4OHT was added to the medium. After 2 days from completed infection the cells were passaged for expansion and/or selection.

[2] = test system: Telomerase Reverse Transcriptase; test: Quantitative PCR of c-myc gene target induction in c-mycERTAM pancreatic cells; type: cell-based, human; details: pancreatic cells with c-mycERTAM, FIG. 4
Description: For the PCR of the c-myc-ER and insulin, the titanium taq PCR kit (Clontech laboratories) was used, see Table 2 for the primers used. The PCR reaction conditions were standard. The PCR machine used was GeneAmp PCR system 2700. For analysis, 15 μl of the PCR product was mixed with 5 μl 6× loading dye solution (MBI R0611) and loaded to a gel. A 100 bp DNA ladder (MBI SM0241), 6 μl, containing 3 μg DNA was also loaded. The gel was a 2% agarose gel consisting of: TAE buffer (Invitrogen 15558-034), agarose 2%, ethidium bromide, 267 μg/ml. The gel was run with an electrophoresis power supply E835 (Consort) in a tray HU13 (Jencons) and finally scanned with Fluor-S multimager (Biorad) and analysed with the software Quantity One (Biorad). For quantitative PCR, total RNA is extracted from cell pellets using Trizol (Invitrogen) and RNeasy (Qiagen) spin-columns, prior to reverse-transcription with Superscript II (Invitrogen) to synthesize the first strand of cDNA, which can be used as a template in quantitative PCR. Each gene transcript is detected with a sequence-specific primer-probe combination which accumulates a fluorescent signal during each PCR cycle, detected using a Lightcycler 480 instrument (Roche); the transcription of each gene is normalized against loading-level by assessing a number of house-keeping genes, and expressed as a proportion of a calibrator sample.

Substance: 4-hydroxytamoxifen [4-OHT]
- effect of addition on proliferation [1]: promotes proliferation
- Telomerase Reverse Transcriptase (hTERT) induction [2]: induction
